Key:
[1] = target: Ephrin type-A receptor 6 (Homo sapiens) (UniProt Q9UF33); conditions: Compound concentration 1000.0 nM
[2] = target: Microtubule-associated serine/threonine-protein kinase 1 (Homo sapiens) (UniProt Q9Y2H9); conditions: Compound concentration 1000.0 nM
[3] = target: Serine/threonine-protein kinase 3 (Homo sapiens) (UniProt Q13188); conditions: Compound concentration 1000.0 nM
[4] = target: Phosphatidylinositol 3-kinase catalytic subunit type 3 (Homo sapiens) (UniProt Q8NEB9); conditions: Compound concentration 1000.0 nM
[5] = target: Cytoplasmic tyrosine-protein kinase BMX (Homo sapiens) (UniProt P51813); conditions: Compound concentration 1000.0 nM
[6] = target: Mitogen-activated protein kinase kinase kinase 10 (Homo sapiens) (UniProt Q02779); conditions: Compound concentration 1000.0 nM
[7] = target: T1, 5-hydroxytryptamine receptor 3A (Homo sapiens) (UniProt P46098); conditions: Compound concentration 10.0 uM
T1 sequence (whole entry): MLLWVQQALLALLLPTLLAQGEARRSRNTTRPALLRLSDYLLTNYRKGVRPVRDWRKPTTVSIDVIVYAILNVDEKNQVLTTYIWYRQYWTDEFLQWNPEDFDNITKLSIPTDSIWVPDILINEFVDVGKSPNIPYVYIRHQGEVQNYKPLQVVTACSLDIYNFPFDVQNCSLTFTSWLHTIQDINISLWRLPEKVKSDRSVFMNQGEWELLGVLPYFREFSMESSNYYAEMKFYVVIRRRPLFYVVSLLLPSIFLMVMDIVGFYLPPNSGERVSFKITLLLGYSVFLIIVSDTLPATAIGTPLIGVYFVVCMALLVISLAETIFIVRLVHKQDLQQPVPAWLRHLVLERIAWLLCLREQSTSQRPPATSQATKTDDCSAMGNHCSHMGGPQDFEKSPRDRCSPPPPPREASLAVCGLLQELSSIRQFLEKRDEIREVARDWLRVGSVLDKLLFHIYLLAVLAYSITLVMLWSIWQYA

[8] = target: Hormonally up-regulated neu tumor-associated kinase (Homo sapiens) (UniProt P57058); conditions: Compound concentration 1000.0 nM
[9] = target: Cyclin-dependent kinase-like 3 (Homo sapiens) (UniProt Q8IVW4); conditions: Compound concentration 1000.0 nM
[10] = test system: Hepatocyte growth factor receptor (Homo sapiens), P08581 [M1250T]; conditions: Compound concentration 1000.0 nM
[11] = target: Calcium/calmodulin-dependent protein kinase type II subunit delta (Homo sapiens) (UniProt Q13557); conditions: Compound concentration 1000.0 nM
[12] = target: Proto-oncogene tyrosine-protein kinase Src (Homo sapiens) (UniProt P12931); conditions: Compound concentration 1000.0 nM
[13] = target: Homeodomain-interacting protein kinase 3 (Homo sapiens) (UniProt Q9H422); conditions: Compound concentration 1000.0 nM
[14] = target: Calcium/calmodulin-dependent protein kinase type 1D (Homo sapiens) (UniProt Q8IU85); conditions: Compound concentration 1000.0 nM
[15] = target: Bone morphogenetic protein receptor type-2 (Homo sapiens) (UniProt Q13873); conditions: Compound concentration 1000.0 nM
[16] = target: SNF-related serine/threonine-protein kinase (Homo sapiens) (UniProt Q9NRH2); conditions: Compound concentration 1000.0 nM
[17] = target: 5-hydroxytryptamine receptor 1B (Homo sapiens) (UniProt P28222); conditions: Compound concentration 10.0 uM
[18] = target: Phosphatidylinositol 4,5-bisphosphate 3-kinase catalytic subunit delta isoform (Homo sapiens) (UniProt O00329); conditions: Compound concentration 1000.0 nM
[19] = test system: Epidermal growth factor receptor (Homo sapiens), P00533 [G719S]; conditions: Compound concentration 1000.0 nM
[20] = target: Phosphatidylinositol 4,5-bisphosphate 3-kinase catalytic subunit alpha isoform (Homo sapiens) (UniProt P42336); conditions: Compound concentration 1000.0 nM
[21] = target: Protein kinase C delta type (Homo sapiens) (UniProt Q05655); conditions: Compound concentration 1000.0 nM
[22] = target: 5-hydroxytryptamine receptor 2B (Homo sapiens) (UniProt P41595); conditions: Compound concentration 10.0 uM
[23] = target: Phosphatidylinositol 4-phosphate 5-kinase type-1 alpha (Homo sapiens) (UniProt Q99755); conditions: Compound concentration 1000.0 nM
[24] = target: Non-receptor tyrosine-protein kinase TNK1 (Homo sapiens) (UniProt Q13470); conditions: Compound concentration 1000.0 nM
[25] = target: Myosin light chain kinase family member 4 (Homo sapiens) (UniProt Q86YV6); conditions: Compound concentration 1000.0 nM
[26] = target: Serine/threonine-protein kinase WNK1 (Homo sapiens) (UniProt Q9H4A3); conditions: Compound concentration 1000.0 nM
[27] = target: Mitogen-activated protein kinase 7 (Homo sapiens) (UniProt Q13164); conditions: Compound concentration 1000.0 nM
[28] = target: Ribosomal protein S6 kinase alpha-5 (Homo sapiens) (UniProt O75582); conditions: Compound concentration 1000.0 nM
[29] = target: Ribosomal protein S6 kinase beta-1 (Homo sapiens) (UniProt P23443); conditions: Compound concentration 1000.0 nM
[30] = target: Non-receptor tyrosine-protein kinase TYK2 (Homo sapiens) (UniProt P29597); conditions: Compound concentration 1000.0 nM
[31] = target: Mitogen-activated protein kinase 10 (Homo sapiens) (UniProt P53779); conditions: Compound concentration 1000.0 nM
[32] = target: cAMP-dependent protein kinase catalytic subunit PRKX (Homo sapiens) (UniProt P51817); conditions: Compound concentration 1000.0 nM
[33] = test system: Phosphatidylinositol 4,5-bisphosphate 3-kinase catalytic subunit alpha isoform (Homo sapiens), P42336 [H1047L]; conditions: Compound concentration 1000.0 nM
[34] = target: Serine/threonine-protein kinase pim-2 (Homo sapiens) (UniProt Q9P1W9); conditions: Compound concentration 1000.0 nM
[35] = target: Cyclin-G-associated kinase (Homo sapiens) (UniProt O14976); conditions: Compound concentration 1000.0 nM
[36] = target: Epithelial discoidin domain-containing receptor 1 (Homo sapiens) (UniProt Q08345); conditions: Compound concentration 1000.0 nM
[37] = test system: eIF-2-alpha kinase GCN2 (Homo sapiens), Q9P2K8 [S808G]; conditions: Compound concentration 1000.0 nM
[38] = target: Bone morphogenetic protein receptor type-1B (Homo sapiens) (UniProt O00238); conditions: Compound concentration 1000.0 nM

Chain of Protein kinase C delta type (Homo sapiens) (Q05655 whole entry, looked up): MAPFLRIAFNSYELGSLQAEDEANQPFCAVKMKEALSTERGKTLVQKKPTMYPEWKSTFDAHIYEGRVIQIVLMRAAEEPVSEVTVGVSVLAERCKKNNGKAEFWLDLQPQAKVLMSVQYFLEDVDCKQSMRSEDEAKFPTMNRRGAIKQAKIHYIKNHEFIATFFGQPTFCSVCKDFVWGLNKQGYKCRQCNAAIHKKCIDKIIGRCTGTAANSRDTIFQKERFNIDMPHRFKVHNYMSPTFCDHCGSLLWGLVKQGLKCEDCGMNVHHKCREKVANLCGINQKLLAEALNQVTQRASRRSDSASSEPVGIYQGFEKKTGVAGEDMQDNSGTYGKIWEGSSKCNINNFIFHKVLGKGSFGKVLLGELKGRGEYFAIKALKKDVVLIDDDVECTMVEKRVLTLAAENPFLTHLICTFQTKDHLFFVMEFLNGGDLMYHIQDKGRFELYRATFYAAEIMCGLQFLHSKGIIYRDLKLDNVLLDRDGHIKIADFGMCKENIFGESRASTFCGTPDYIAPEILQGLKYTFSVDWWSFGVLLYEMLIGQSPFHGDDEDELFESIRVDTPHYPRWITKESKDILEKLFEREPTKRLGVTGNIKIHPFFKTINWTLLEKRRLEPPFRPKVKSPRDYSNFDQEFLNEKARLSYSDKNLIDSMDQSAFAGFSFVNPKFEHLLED
Chain of Cyclin-dependent kinase-like 3 (Homo sapiens) (Q8IVW4 whole entry, looked up): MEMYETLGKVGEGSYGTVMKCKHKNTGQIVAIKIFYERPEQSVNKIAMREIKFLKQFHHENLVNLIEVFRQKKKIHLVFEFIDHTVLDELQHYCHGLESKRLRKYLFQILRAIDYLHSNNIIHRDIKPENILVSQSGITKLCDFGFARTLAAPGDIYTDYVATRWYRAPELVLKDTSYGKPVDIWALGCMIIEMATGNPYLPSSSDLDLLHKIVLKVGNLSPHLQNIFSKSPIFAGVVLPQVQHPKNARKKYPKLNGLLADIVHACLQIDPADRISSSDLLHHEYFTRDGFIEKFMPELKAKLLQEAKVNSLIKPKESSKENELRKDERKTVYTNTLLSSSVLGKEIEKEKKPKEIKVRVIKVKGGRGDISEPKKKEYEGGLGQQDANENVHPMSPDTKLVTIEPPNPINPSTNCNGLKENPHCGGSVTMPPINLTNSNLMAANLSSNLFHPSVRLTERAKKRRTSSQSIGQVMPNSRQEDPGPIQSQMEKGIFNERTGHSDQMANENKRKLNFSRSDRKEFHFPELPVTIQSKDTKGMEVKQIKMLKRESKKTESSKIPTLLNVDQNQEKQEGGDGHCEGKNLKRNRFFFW
Chain of Bone morphogenetic protein receptor type-2 (Homo sapiens) (Q13873 whole entry): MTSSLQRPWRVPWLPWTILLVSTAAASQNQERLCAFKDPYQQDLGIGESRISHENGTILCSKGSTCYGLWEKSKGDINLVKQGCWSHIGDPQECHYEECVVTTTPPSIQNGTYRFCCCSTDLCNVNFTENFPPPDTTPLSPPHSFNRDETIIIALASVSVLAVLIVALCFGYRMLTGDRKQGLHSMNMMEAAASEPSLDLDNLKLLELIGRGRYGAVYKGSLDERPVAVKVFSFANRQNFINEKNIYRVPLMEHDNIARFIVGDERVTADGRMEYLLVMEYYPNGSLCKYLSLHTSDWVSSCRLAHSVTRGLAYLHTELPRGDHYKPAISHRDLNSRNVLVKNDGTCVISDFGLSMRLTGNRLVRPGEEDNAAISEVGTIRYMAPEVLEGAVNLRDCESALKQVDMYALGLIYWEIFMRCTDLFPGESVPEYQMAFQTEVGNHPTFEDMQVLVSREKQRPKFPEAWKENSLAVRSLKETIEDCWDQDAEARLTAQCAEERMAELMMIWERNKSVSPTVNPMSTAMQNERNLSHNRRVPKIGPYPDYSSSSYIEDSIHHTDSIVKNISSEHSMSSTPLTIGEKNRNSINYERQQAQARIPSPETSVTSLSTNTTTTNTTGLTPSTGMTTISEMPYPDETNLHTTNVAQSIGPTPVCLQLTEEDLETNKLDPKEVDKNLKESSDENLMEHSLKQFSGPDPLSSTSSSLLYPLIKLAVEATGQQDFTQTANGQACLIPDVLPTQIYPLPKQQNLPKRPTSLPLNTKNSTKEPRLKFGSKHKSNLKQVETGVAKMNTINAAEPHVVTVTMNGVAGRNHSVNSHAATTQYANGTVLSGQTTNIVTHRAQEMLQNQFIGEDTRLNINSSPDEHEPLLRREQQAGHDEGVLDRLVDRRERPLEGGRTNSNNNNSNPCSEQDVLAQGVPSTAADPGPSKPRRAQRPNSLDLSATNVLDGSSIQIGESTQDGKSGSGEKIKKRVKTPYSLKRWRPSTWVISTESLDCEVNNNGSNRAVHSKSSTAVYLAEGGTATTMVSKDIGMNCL
Chain of Ribosomal protein S6 kinase beta-1 (Homo sapiens) (P23443 whole entry, looked up): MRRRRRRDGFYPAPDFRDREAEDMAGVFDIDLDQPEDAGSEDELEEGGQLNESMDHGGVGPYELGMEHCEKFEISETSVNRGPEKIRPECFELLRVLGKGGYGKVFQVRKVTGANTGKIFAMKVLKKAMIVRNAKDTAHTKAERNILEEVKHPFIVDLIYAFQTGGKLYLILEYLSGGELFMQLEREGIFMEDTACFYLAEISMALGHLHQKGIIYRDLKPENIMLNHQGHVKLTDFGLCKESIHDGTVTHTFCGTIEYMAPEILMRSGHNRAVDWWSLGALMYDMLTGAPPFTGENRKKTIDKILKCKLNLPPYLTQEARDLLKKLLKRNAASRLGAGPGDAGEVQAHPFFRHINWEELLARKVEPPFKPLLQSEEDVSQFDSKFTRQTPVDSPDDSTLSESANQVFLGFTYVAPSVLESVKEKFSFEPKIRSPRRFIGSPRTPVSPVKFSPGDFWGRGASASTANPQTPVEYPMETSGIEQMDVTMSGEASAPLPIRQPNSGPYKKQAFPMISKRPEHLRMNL
Chain of Cyclin-G-associated kinase (Homo sapiens) (O14976 whole entry, the tested form may be a part): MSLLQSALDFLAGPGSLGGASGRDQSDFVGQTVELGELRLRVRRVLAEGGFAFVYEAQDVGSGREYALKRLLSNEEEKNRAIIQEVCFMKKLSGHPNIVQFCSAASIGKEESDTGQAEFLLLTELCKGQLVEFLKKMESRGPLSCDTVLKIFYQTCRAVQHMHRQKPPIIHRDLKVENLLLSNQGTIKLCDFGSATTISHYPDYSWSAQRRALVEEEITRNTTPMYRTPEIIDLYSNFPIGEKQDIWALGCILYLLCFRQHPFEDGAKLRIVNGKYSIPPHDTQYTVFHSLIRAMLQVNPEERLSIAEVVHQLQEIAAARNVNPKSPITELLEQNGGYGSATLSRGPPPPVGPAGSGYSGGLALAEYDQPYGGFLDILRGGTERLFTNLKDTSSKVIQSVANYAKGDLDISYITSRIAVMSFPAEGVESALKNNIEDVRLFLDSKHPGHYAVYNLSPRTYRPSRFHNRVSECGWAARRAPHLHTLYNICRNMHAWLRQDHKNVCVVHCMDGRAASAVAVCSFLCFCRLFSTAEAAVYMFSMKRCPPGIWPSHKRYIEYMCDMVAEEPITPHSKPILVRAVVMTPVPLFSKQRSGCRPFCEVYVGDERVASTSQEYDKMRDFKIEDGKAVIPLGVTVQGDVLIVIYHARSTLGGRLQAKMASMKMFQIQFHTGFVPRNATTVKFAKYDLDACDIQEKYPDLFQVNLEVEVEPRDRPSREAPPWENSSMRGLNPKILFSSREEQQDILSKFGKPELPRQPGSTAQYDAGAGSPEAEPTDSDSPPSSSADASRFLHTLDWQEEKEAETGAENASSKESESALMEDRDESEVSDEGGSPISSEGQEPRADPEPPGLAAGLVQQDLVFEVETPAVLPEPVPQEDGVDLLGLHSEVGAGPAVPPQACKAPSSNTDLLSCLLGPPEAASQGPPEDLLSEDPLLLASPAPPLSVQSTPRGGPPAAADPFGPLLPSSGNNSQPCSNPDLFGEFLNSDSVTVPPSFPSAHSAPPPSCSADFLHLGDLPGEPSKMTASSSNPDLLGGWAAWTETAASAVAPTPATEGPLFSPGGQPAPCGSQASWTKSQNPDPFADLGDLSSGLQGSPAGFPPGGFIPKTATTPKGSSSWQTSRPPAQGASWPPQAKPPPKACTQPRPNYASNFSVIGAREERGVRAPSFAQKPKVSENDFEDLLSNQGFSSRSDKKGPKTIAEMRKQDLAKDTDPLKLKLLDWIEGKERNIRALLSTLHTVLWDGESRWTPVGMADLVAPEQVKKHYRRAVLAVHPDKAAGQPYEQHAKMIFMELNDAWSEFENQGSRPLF
Chain of Calcium/calmodulin-dependent protein kinase type 1D (Homo sapiens) (Q8IU85 whole entry, looked up): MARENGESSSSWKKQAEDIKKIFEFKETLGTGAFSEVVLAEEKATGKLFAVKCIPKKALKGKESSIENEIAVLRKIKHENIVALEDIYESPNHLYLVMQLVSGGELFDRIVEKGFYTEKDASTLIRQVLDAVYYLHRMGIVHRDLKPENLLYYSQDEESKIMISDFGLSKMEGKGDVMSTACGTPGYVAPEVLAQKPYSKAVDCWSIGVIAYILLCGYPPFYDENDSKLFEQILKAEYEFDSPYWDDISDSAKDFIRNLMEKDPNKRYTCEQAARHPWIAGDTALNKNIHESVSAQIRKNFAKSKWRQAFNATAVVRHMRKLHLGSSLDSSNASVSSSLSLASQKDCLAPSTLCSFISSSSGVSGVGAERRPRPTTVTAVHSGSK
Chain of Myosin light chain kinase family member 4 (Homo sapiens) (Q86YV6 whole entry): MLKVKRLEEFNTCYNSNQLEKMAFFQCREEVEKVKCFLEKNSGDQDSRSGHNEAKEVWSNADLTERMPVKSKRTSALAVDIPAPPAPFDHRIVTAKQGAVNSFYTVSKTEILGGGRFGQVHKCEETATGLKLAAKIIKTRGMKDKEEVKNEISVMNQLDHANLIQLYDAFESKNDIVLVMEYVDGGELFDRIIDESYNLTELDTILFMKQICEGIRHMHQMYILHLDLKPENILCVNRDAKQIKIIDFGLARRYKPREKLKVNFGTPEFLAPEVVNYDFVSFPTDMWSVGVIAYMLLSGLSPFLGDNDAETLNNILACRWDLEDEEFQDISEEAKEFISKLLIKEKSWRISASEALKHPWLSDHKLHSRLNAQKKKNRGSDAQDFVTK

| Compound | residual activity [1] [%] | residual activity [2] [%] | residual activity [3] [%] | residual activity [4] [%] | residual activity [5] [%] | residual activity [6] [%] | inhibition [7] [%] | residual activity [8] [%] | residual activity [9] [%] | residual activity [10] [%] | residual activity [11] [%] | residual activity [12] [%] | residual activity [13] [%] | residual activity [14] [%] | residual activity [15] [%] | residual activity [16] [%] | inhibition [17] [%] | residual activity [18] [%] | residual activity [19] [%] | residual activity [20] [%] | other results |
| --- | --- | --- | --- | --- | --- | --- | --- | --- | --- | --- | --- | --- | --- | --- | --- | --- | --- | --- | --- | --- | --- |
| N#CC1(c2ccccn2)CCN(Cc2cc(C(=O)O)c(=O)n3ccccc23)CC1 [MSD-M1PAM] | 86 | 50 | 98 | 70 | 88 | 97 | 12 | 100 | 89 | 96 | 100 | 100 | 84 | 100 | 89 | 76 | 2.72 | 91 | 90 | 100 | residual activity [21]: 100%; inhibition [22]: 3.23%; residual activity [23]: 100%; residual activity [24]: 93%; residual activity [25]: 100%; residual activity [26]: 97%; residual activity [27]: 94%; residual activity [28]: 100%; residual activity [29]: 96%; residual activity [30]: 93%; residual activity [31]: 82%; residual activity [32]: 100%; residual activity [33]: 80%; residual activity [34]: 100%; residual activity [35]: 100%; residual activity [36]: 100%; residual activity [37]: 100%; residual activity [38]: 67% |
| N#CC1(c2ccccn2)CCN(Cc2cc(C(=O)N3CCCC3)c(=O)n3ccccc23)CC1 | 100 | 82 | 92 | 89 | 84 | 100 | 6.59 | 79 | 78 | 80 | 97 | 56 | 97 | 100 | 92 | 91 | 13 | 61 | 100 | 80 | residual activity [21]: 95%; inhibition [22]: 5.44%; residual activity [23]: 100%; residual activity [24]: 72%; residual activity [25]: 95%; residual activity [26]: 100%; residual activity [27]: 63%; residual activity [28]: 88%; residual activity [29]: 34%; residual activity [30]: 100%; residual activity [31]: 96%; residual activity [32]: 96%; residual activity [33]: 100%; residual activity [34]: 77%; residual activity [35]: 100%; residual activity [36]: 85%; residual activity [37]: 78%; residual activity [38]: 95% |

Source: ChEMBL document CHEMBL4507295 (2021)
